Measurements taken from patent US9809623B2, “α4β7 peptide monomer and dimer antagonists” (Protagonist Therapeutics, Inc., priority 2014, dated 2017).

How the values were obtained:
[1] = tested on: cell types in human whole blood; test: FACS binding specificity in human whole blood; type: cell-based; details: 1 nM, 1 mM MnCl2
Procedure: To further evaluate the selectivity of Peptide X in human blood, the fluorescent dye Alexa 647 was conjugated to Peptide X at the same position used for attaching biotin. […] Heparinized human whole blood was supplemented with 1 mM MnCl2, and stained with the Peptide X-Alexa 647 conjugate or biotinylated vedolizumab for 1 hour at room temperature. The samples were fixed (red blood cells lysed) and washed. The vedolizumab samples were stained separately with streptavidin Alexa 647 for stain for 30 minutes at room temperature. FACS analysis was used to assess binding of the peptide or vedolizumab to a broad panel of cell types including NK cells, basophils, monocytes, eosinophils, neutrophils, CD4 naïve T cells, CD4 memory T cells, CD8 naïve T cells, CD8 memory T cells, and B cells. […] The binding specificity for vedolizmab shown in Table 7 is also very similar to that reported in the literature (Soler et al, JPET 330:864-875, 2009).

αEβ7 integrin = test: FACS binding in cynomolgus monkey blood (α4β7 / αEβ7 expressing cells); type: cell-based; details: cyno blood, 1 nM
Procedure: Blood from cynomolgus monkeys was also analyzed by FACS.
Binding to αEβ7 integrin in cyno blood was also tested. Cyno blood was incubated with 1 nM Peptide X-Alexa 647, and cells expressing α4β7 or αEβ7 were analyzed by FACS. […] Binding to α4β7 was specific, because it could be blocked in the presence of a large excess (1 uM) of unlabeled Peptide X. Therefore under these conditions, it was concluded that Peptide X binds α4β7, not αEβ7.

**Q.** Which “Percent positive staining, Basophils” value [1] does the source give for `CC(=O)N[C@@H]1C(=O)N(C)[C@@H](CCCNC(=N)N)C(=O)N[C@@H](CO)C(=O)N[C@@H](CC(=O)O)C(=O)N[C@@H]([C@@H](C)O)C(=O)N[C@@H](CC(C)C)C(=O)N[C@H](C(=O)N[C@@H](Cc2ccc(C(C)(C)C)cc2)C(=O)N[C@@H](CCC(=O)O)CC(=O)N[C@H](CCCCNC(=O)CN(CC(=O)NCCCC[C@@H](NC(=O)C[C@H](CCC(=O)O)NC(=O)[C@H](Cc2ccc(C(C)(C)C)cc2)NC(=O)[C@H]2NC(=O)[C@H](CC(C)C)NC(=O)[C@H]([C@@H](C)O)NC(=O)[C@H](CC(=O)O)NC(=O)[C@H](CO)NC(=O)[C@H](CCCNC(=N)N)N(C)C(=O)[C@@H](NC(C)=O)C(C)(C)SSC2(C)C)C(N)=O)C(=O)CCNC(=O)CCCCCC2(C)C(=CC=CC=CC3=[N+](CCCS(=O)(=O)[O-])c4ccc(S(=O)(=O)O)cc4C3(C)C)N(CCCS(=O)(=O)O)c3ccc(S(=O)(=O)O)cc32)C(N)=O)C(C)(C)SSC1(C)C` (single isomer, unassigned) [Peptide X-Alexa 647] here?
**A.** 87%

**Q.** And the “Percent positive staining, CD4 memory T cells” value [1]?
**A.** 20%

**Q.** And the “Percent positive staining, CD4 naïve T cells” value [1]?
**A.** 51%

**Q.** What about the “Percent positive staining, CD8 memory T cells” value [1] of the same molecule?
**A.** 36%

**Q.** What about the “Percent positive staining, CD8 naïve T cells” value [1] of the same molecule?
**A.** 52%

**Q.** What about the “Percent positive staining, CD19+ B cells” value [1] of the same molecule?
**A.** 78%

**Q.** What about the “Percent positive staining, Eosinophils” value [1] of the same molecule?
**A.** 92%

**Q.** What about the “Percent positive staining, Monocytes” value [1] of the same molecule?
**A.** 7%

**Q.** And the “Percent positive staining, NK cells CD16+ 56+” value [1]?
**A.** 45%

**Q.** What about the “Percent positive staining, Neutrophils” value [1] of the same molecule?
**A.** 0.35%

**Q.** And the “Binding to α4β7+ and αEβ7+ CD4 memory T cells” value (αEβ7 integrin)?
**A.** bound to α4β7^+, but not αEβ7^+ cells
